Experimental data taken from US8815503B2, “Compositions and methods for immunostimulatory RNA oligonucleotides” (Rheinische Friedrich-Wilhelms-Universitat Bonn, priority 2005, dated 2014).

Test system: PBMC
Assay: 193 ssRNA 4mer-motif library screen: IL-12 (IL-12p40) production in PBMC of six donors, poly-L-Arg complexation, ELISA at 44 hours, IL-12 index and adjusted IL-12 index
Type: cell-based, human
Parameters: key to Adjusted IL-12 index Mean: IL-12 index (ratio to 9.2sense) minus donor mean, averaged over 6 donors
Details: 193 ssRNA oligonucleotide library; data from six individual donors summarized; ascending order
Experimental: FIG. 9: PBMC of six different healthy donors were isolated and stimulated with poly-L-arginine complexed ssRNA oligonucleotides in duplicates. 44 hours after stimulation IL-12p40 production was assessed in supernatant via ELISA. For all tested ssRNA oligonucleotides (table 3), the mean values of the measured duplicates were normalized to the positive control ssRNA oligonucleotide 9.2sense (5′-AGCUUAACCUGUCCUUCAA (SEQ ID NO: 194)) by dividing the mean value of tested oligonucleotide by the mean value of 9.2sense (=IL-12 index of a given oligonucleotide). Next, all individual IL-12 indices were adjusted to the mean value of all IL-12 indices by subtracting the mean value of all IL-12 indices from the individual IL-12 index of a given oligonucleotide (=adjusted IL-12 index). Data from six individual donors were summarized and were assorted in ascending order displaying the corresponding SEM (for a complete listing including numerical data see table 4). FIG. 9A discloses SEQ ID NOS 460-509, respectively, in order of appearance. FIG. 9B discloses SEQ ID NOS 510-559, respectively, in order of appearance. FIG. 9C discloses SEQ ID NOS 560-609, respectively, in order of appearance. FIG. 9D discloses SEQ ID NOS 610-652, respectively, in order of appearance.
All 193 ssRNA oligonucleotides were tested on PBMC of six individual healthy donors using poly-L-Arg for complexation. At 44 hours after stimulation with RNA oligonucleotides, supernatants were collected and IL-12 production was measured by ELISA. Prior to statistical analysis the raw data were processed as follows: for each cell culture plate the mean IL-12 value of the experimental duplicates for each tested ssRNA oligonucleotide were normalized to the ssRNA oligonucleotide RNA9.2sense (5′-AGCUUAACCUGUCCUUCAA-3′ (SEQ ID NO: 194)). This standard RNA oligonucleotide was included as a positive control on all cell culture plates. Normalization was performed by calculating the ratio of IL-12 induced by the tested oligonucleotide and IL-12 induced by the standard oligonucleotide RNA9.2sense. Thus, for each tested oligonucleotide in an individual donor a mean ratio of IL-12 induction was obtained. In the following, this mean of the ratios is referred to as IL-12 index (one value of IL-12 index per donor). […] The corresponding IL-12 index of oligonucleotide ANP175 for donor 3 was calculated to be 1.90 (=1725 pg/ml divided by 908 pg/ml).
Next, the means of all IL-12 indices for every individual donor were calculated. Then the adjusted IL-12 indices were calculated as IL-12 index minus the mean of all IL-12 indices of one individual donor. […] The adjusted IL-12 index of ANP175 was calculated: 1.90 minus 0.44=1.46. The adjusted IL-12 indices from all six donors were summarized by calculating the means and the corresponding standard error of mean. The data are depicted in ascending order (FIG. 9A, B, C, D). The adjusted IL-12 indices of the top thirty ssRNA oligonucleotides of all six donors were compared using a two-tailed Student's t-test (FIG. 10). For most combinations tested, a significant difference was observed when the interval between the analyzed pairs was at least eight or nine places in the assortment.

| Sequence | Adjusted IL-12 index Mean |
| --- | --- |
| AAAAAAAAAAAAAAAAAAA (RNA, backbone not given here) [ANP-Oligo 001] | −0.48 |
| AAAAAAAACAAAAAAAAAA (RNA, backbone not given here) [ANP-Oligo 002] | −0.57 |
| AAAAAAAACACAAAAAAAA (RNA, backbone not given here) [ANP-Oligo 014] | −0.64 |
| AAAAAAAACAGAAAAAAAA (RNA, backbone not given here) [ANP-Oligo 015] | −0.65 |
| AAAAAAAACAUAAAAAAAA (RNA, backbone not given here) [ANP-Oligo 016] | −0.37 |
| AAAAAAAACCAAAAAAAAA (RNA, backbone not given here) [ANP-Oligo 005] | −0.62 |
| AAAAAAAACCCAAAAAAAA (RNA, backbone not given here) [ANP-Oligo 017] | −0.66 |
| AAAAAAAACCGAAAAAAAA (RNA, backbone not given here) [ANP-Oligo 018] | −0.68 |
| AAAAAAAACCUAAAAAAAA (RNA, backbone not given here) [ANP-Oligo 019] | −0.51 |
| AAAAAAAACGAAAAAAAAA (RNA, backbone not given here) [ANP-Oligo 006] | −0.63 |
| AAAAAAAACGCAAAAAAAA (RNA, backbone not given here) [ANP-Oligo 020] | −0.66 |
| AAAAAAAACGGAAAAAAAA (RNA, backbone not given here) [ANP-Oligo 021] | −0.63 |
| AAAAAAAACGUAAAAAAAA (RNA, backbone not given here) [ANP-Oligo 022] | 0.02 |
| AAAAAAAACUAAAAAAAAA (RNA, backbone not given here) [ANP-Oligo 007] | −0.56 |
| AAAAAAAACUCAAAAAAAA (RNA, backbone not given here) [ANP-Oligo 023] | −0.41 |
| AAAAAAAACUGAAAAAAAA (RNA, backbone not given here) [ANP-Oligo 024] | −0.48 |
| AAAAAAAACUUAAAAAAAA (RNA, backbone not given here) [ANP-Oligo 025] | −0.31 |
| AAAAAAAAGAAAAAAAAAA (RNA, backbone not given here) [ANP-Oligo 003] | −0.63 |
| AAAAAAAAGACAAAAAAAA (RNA, backbone not given here) [ANP-Oligo 026] | −0.6 |
| AAAAAAAAGAGAAAAAAAA (RNA, backbone not given here) [ANP-Oligo 027] | −0.62 |

| Sequence | Adjusted IL-12 index Mean |
| --- | --- |
| AAAAAAAAGAUAAAAAAAA (RNA, backbone not given here) [ANP-Oligo 028] | −0.32 |
| AAAAAAAAGCAAAAAAAAA (RNA, backbone not given here) [ANP-Oligo 008] | −0.61 |
| AAAAAAAAGCCAAAAAAAA (RNA, backbone not given here) [ANP-Oligo 029] | −0.66 |
| AAAAAAAAGCGAAAAAAAA (RNA, backbone not given here) [ANP-Oligo 030] | −0.6 |
| AAAAAAAAGCUAAAAAAAA (RNA, backbone not given here) [ANP-Oligo 031] | −0.32 |
| AAAAAAAAGGAAAAAAAAA (RNA, backbone not given here) [ANP-Oligo 009] | −0.66 |
| AAAAAAAAGGCAAAAAAAA (RNA, backbone not given here) [ANP-Oligo 032] | −0.62 |
| AAAAAAAAGGGAAAAAAAA (RNA, backbone not given here) [ANP-Oligo 033] | −0.59 |
| AAAAAAAAGGUAAAAAAAA (RNA, backbone not given here) [ANP-Oligo 034] | 2.21 |
| AAAAAAAAGUAAAAAAAAA (RNA, backbone not given here) [ANP-Oligo 010] | −0.16 |
| AAAAAAAAGUCAAAAAAAA (RNA, backbone not given here) [ANP-Oligo 035] | −0.22 |
| AAAAAAAAGUGAAAAAAAA (RNA, backbone not given here) [ANP-Oligo 036] | −0.12 |
| AAAAAAAAGUUAAAAAAAA (RNA, backbone not given here) [ANP-Oligo 037] | 0.21 |
| AAAAAAAAUAAAAAAAAAA (RNA, backbone not given here) [ANP-Oligo 004] | −0.4 |
| AAAAAAAAUACAAAAAAAA (RNA, backbone not given here) [ANP-Oligo 038] | −0.32 |
| AAAAAAAAUAGAAAAAAAA (RNA, backbone not given here) [ANP-Oligo 039] | −0.05 |
| AAAAAAAAUAUAAAAAAAA (RNA, backbone not given here) [ANP-Oligo 040] | −0.04 |
| AAAAAAAAUCAAAAAAAAA (RNA, backbone not given here) [ANP-Oligo 011] | −0.43 |
| AAAAAAAAUCCAAAAAAAA (RNA, backbone not given here) [ANP-Oligo 041] | −0.48 |
| AAAAAAAAUCGAAAAAAAA (RNA, backbone not given here) [ANP-Oligo 042] | −0.64 |

| Sequence | Adjusted IL-12 index Mean |
| --- | --- |
| AAAAAAAAUCUAAAAAAAA (RNA, backbone not given here) [ANP-Oligo 043] | −0.22 |
| AAAAAAAAUGAAAAAAAAA (RNA, backbone not given here) [ANP-Oligo 012] | −0.23 |
| AAAAAAAAUGCAAAAAAAA (RNA, backbone not given here) [ANP-Oligo 044] | 0.2 |
| AAAAAAAAUGGAAAAAAAA (RNA, backbone not given here) [ANP-Oligo 045] | −0.29 |
| AAAAAAAAUGUAAAAAAAA (RNA, backbone not given here) [ANP-Oligo 046] | 0.97 |
| AAAAAAAAUUAAAAAAAAA (RNA, backbone not given here) [ANP-Oligo 013] | −0.09 |
| AAAAAAAAUUCAAAAAAAA (RNA, backbone not given here) [ANP-Oligo 047] | −0.45 |
| AAAAAAAAUUGAAAAAAAA (RNA, backbone not given here) [ANP-Oligo 048] | −0.35 |
| AAAAAAAAUUUAAAAAAAA (RNA, backbone not given here) [ANP-Oligo 049] | −0.07 |
| AAAAAAACAACAAAAAAAA (RNA, backbone not given here) [ANP-Oligo 050] | −0.64 |
| AAAAAAACAAGAAAAAAAA (RNA, backbone not given here) [ANP-Oligo 051] | −0.66 |
| AAAAAAACAAUAAAAAAAA (RNA, backbone not given here) [ANP-Oligo 052] | −0.37 |
| AAAAAAACACCAAAAAAAA (RNA, backbone not given here) [ANP-Oligo 053] | −0.67 |
| AAAAAAACACGAAAAAAAA (RNA, backbone not given here) [ANP-Oligo 054] | −0.65 |
| AAAAAAACACUAAAAAAAA (RNA, backbone not given here) [ANP-Oligo 055] | −0.53 |
| AAAAAAACAGCAAAAAAAA (RNA, backbone not given here) [ANP-Oligo 056] | −0.54 |
| AAAAAAACAGGAAAAAAAA (RNA, backbone not given here) [ANP-Oligo 057] | −0.6 |
| AAAAAAACAGUAAAAAAAA (RNA, backbone not given here) [ANP-Oligo 058] | 0.22 |
| AAAAAAACAUCAAAAAAAA (RNA, backbone not given here) [ANP-Oligo 059] | −0.48 |
